As usually defined, the Ki is the equilibrium dissociation constant of an inhibitor or competing ligand from its target.

SMILES strings stand for the structures. Counter-ions that a name gives are not always drawn.

For the first test, the target named is T1, human 5-HT6 receptor (Homo sapiens, UniProt P50406).
T1 construct: host or cells: CHO-K1 cells, stably transfected; membranes prepared in house
T1 sequence (P50406 whole entry): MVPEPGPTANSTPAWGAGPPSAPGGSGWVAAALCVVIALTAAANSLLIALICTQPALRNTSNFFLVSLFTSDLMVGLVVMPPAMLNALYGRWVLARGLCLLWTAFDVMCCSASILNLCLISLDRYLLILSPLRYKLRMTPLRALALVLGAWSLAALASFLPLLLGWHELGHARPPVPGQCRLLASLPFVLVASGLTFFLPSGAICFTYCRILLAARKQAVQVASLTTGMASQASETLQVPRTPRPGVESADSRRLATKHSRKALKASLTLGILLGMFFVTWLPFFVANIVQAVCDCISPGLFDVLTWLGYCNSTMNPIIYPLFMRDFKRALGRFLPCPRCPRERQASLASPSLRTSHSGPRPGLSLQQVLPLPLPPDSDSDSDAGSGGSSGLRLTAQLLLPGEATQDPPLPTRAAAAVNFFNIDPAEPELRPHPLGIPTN
Description: Human 5-HT6 Receptor Binding Assay ([3H]LSD displacement, scintillation beads). Particulars: membranes of CHO-K1 cells with recombinant human 5-HT6, 4 nM [3H]LSD; Table 1, class symbols; read-out: h5-HT6 (Ki). Here is the method:
Human 5-HT6 Receptor Binding Assay
Membranes were prepared from CHO—K1 cells stably transfected with the human 5-HT6 receptor (Euroscreen; ES-316-C). The cells were grown in Gibco Advanced DMEM-F12 (Cat#12634010) containing 2% dialyzed FBS (Hyclone Cat#SH30079.03). The cells were harvested in phosphate buffered saline (PBS) containing 0.1 mM EDTA and pelleted by centrifugation (1000×g), the supernatant was discarded and the pellets were stored at −80° C. prior to membrane preparation. Membranes were prepared as previously described (J Bio Chem. 1992, 267 (14) 9844-51). Briefly, frozen cell pellet was resuspended in a lysis buffer containing 5 mM Tris-HCl (pH 7.5), 5 mM EDTA and 1 complete EDTA-free protease inhibitor tablet (Roche Applied Science, Indianapolis, Ind.) per 50 mL buffer, and homogenized with a tissue homogenizer. The cell lysate was then centrifuged at 40,000×g for 30 min at 4° C. to collect the membranes. The membrane pellets were washed in membrane buffer (50 mM Tris-HCl (pH 7.5), 0.6 mM EDTA, 5 mM MgCl2, 1 complete EDTA-free protease inhibitor tablet per 50 mL buffer) using a tissue homogenizer. The membranes were centrifuged at 40,000×g for 30 min at 4° C. and the pellets were resuspended in membrane buffer containing 250 mM sucrose, and protein concentration was determined using the Coomassie Plus kit (Pierce Biotechnology, Rockford, Ill.).
Membranes prepared from cells expressing recombinant human 5-HT6 receptor (h5-HT6) were resuspended in assay buffer containing 50 mM Tris HCl, (pH7.4), 4 mM CaCl2, 10 μg/mL saponin, and 0.1% (w/v) ascorbic acid. Membranes were preincubated using 1.75 μg membrane protein and 0.25 mg FlashBlue scintillation beads (PerkinElmer catalogue #FB001) per well at 4° for 30 min. […] Test compounds or assay controls for total and non-specific binding were diluted in DMSO as 100× solutions and serially diluted by half log concentrations on a Perkin Elmer JANUS Automated Workstation. Serotonin (10 μM final concentration) was used to determine non-specific binding in the assay. Plates were read using the Microbeta Trilux 1450 LSC and luminescence counter. Data were analyzed by nonlinear […] using the dose-response equation (variable slope) to calculate IC50 in XLfit4 (ID Business Solutions Inc.): y=(Bottom+((Top−Bottom)/(1+((IC50/x)^Hill slope))))
Ki value was then calculated according to the Cheng-Prusoff method using the equation below (Cheng and Prusoff, 1973): Ki,app=IC50/(1+[radioligand]/Kd))
`O=S(=O)(c1ccccc1)c1ccc2c3c(oc2c1)C1(CCCOC1)NCC3` (single isomer, unassigned) [Example 543, 7-(Phenylsulfonyl)-3,4,5′,6′-tetrahydro-2H,4′H-spiro[1-benzofuro[2,3-c]pyridine-1,3′-pyran]hydrochloride]: the Ki is less than 500 nM.
With `O=S(=O)(c1ccccc1)c1ccc2c3c(oc2c1)C1(CCCOC1)NCC3` (single isomer, unassigned) [Example 544, 7-(Phenylsulfonyl)-3,4,5′,6′-tetrahydro-2H,4′H-spiro[1-benzofuro[2,3-c]pyridine-1,3′-pyran]hydrochloride], the Ki was in the range of 500 to 1000 nM.
As for `O=S(=O)(c1cccc(OCC2CCOCC2)c1)c1ccc2c(c1)OC1CNCCC21` (single isomer, unassigned) [Example 548, 7-{[3-(Tetrahydro-2H-pyran-4-ylmethoxy)phenyl]sulfonyl}-1,2,3,4,4a,9a-hexahydro[1]benzofuro[2,3-c]pyridine], the Ki was less than 500 nM.
Consider `CC1(C(F)F)NCCc2c1oc1cc(S(=O)(=O)c3cccc(F)c3F)ccc21` (single isomer, unassigned; enantiomer 1) [Example 471, 1-(Difluoromethyl)-7-[(2,3-difluorophenyl)sulfonyl]-1-methyl-1,2,3,4-tetrahydro[1]benzofuro[2,3-c]pyridine, enantiomer 1], for which the Ki is less than 500 nM.
Take `CC1(C)NCCc2c1oc1cc(S(=O)(=O)c3cccc(F)c3)ccc21` [Example 1, 7-[(3-Fluorophenyl)sulfonyl]-1,1-dimethyl-1,2,3,4-tetrahydro[1]benzofuro[2,3-c]pyridine]: the Ki was less than 500 nM.
On to `CC1(C)CNC2(CCOCC2)c2oc3cc(S(=O)(=O)c4cccc(F)c4)ccc3c21` [Example 2, 7-[(3-fluorophenyl)sulfonyl]-4,4-dimethyl-2′,3,3′,4,5′,6′-hexahydro-2H-spiro[1-benzofuro[2,3-c]pyridine-1,4′-pyran]], for which the Ki is less than 500 nM.
With `CC(C)Oc1cccc(S(=O)(=O)c2ccc3c4c(oc3c2)C(C)(C)NCC4)c1` [Example 15, 1,1-dimethyl-7-{[3-(propan-2-yloxy)phenyl]sulfonyl}-1,2,3,4-tetrahydro[1]benzofuro[2,3-c]pyridine], the Ki is less than 500 nM.
Take `COc1cccc(S(=O)(=O)c2ccc3c4c(oc3c2)C(C)(C)NCC4)c1` [Example 16, 7-[(3-methoxyphenyl)sulfonyl]-1,1-dimethyl-1,2,3,4-tetrahydro[1]benzofuro[2,3-c]pyridine]: the Ki was less than 500 nM.
For the molecule `CC1(C)NCCc2c1oc1cc(S(=O)(=O)c3cccc(Cl)c3)ccc21` [Example 17, 7-[(3-chlorophenyl)sulfonyl]-1,1-dimethyl-1,2,3,4-tetrahydro[1]benzofuro[2,3-c]pyridine], the Ki was less than 500 nM.
As for `CC1(C)NCCc2c1oc1cc(S(=O)(=O)c3ccc(F)c(Cl)c3)ccc21` [Example 18, 7-[(3-chloro-4-fluorophenyl)sulfonyl]-1,1-dimethyl-1,2,3,4-tetrahydro[1]benzofuro[2,3-c]pyridine], the Ki was less than 500 nM.
As to `Cc1cccc(S(=O)(=O)c2ccc3c4c(oc3c2)C(C)(C)NCC4)n1` [Example 19, 1,1-dimethyl-7-[(6-methylpyridin-2-yl)sulfonyl]-1,2,3,4-tetrahydro[1]benzofuro[2,3-c]pyridine], the Ki is less than 500 nM.
For `O=S(=O)(c1cccc(F)c1)c1ccc2c3c(oc2c1)C1(CCC1)NCC3` [Example 25, 7-[(3-fluorophenyl)sulfonyl]-3,4-dihydro-2H-spiro[1-benzofuro[2,3-c]pyridine-1,1′-cyclobutane]], the Ki was less than 500 nM.
As to `CC(C)Oc1cccc(S(=O)(=O)c2ccc3c4c(oc3c2)C2(CCC2)NCC4)c1` [Example 26, 7-{[3-(propan-2-yloxy)phenyl]sulfonyl}-3,4-dihydro-2H-spiro[1-benzofuro[2,3-c]pyridine-1,1′-cyclobutane]], the Ki was less than 500 nM.
As to `O=S(=O)(c1cccc(F)c1)c1ccc2c3c(oc2c1)C1(CCCC1)NCC3` [Example 28, 7-[(3-fluorophenyl)sulfonyl]-3,4-dihydro-2H-spiro[1-benzofuro[2,3-c]pyridine-1,1′-cyclopentane]], the Ki is less than 500 nM.
Still for that read-out and setting: with `O=S1(=O)CCC2(CC1)NCCc1c2oc2cc(S(=O)(=O)c3cccc(F)c3)ccc12` [Example 38, 7-[(3-fluorophenyl)sulfonyl]-2′,3,3′,4,5′,6′-hexahydro-2H-spiro[1-benzofuro[2,3-c]pyridine-1,4′-thiopyran] 1′,1′-dioxide] the figure was less than 500 nM; with `COCC1(COC)NCCc2c1oc1cc(S(=O)(=O)c3cccc(F)c3)ccc21` [Example 39, 7-[(3-fluorophenyl)sulfonyl]-1,1-bis(methoxymethyl)-1,2,3,4-tetrahydro[1]benzofuro[2,3-c]pyridine], less than 500 nM; with `CC(=O)N1CCC2(CC1)NCCc1c2oc2cc(S(=O)(=O)c3cccc(F)c3)ccc12` [Example 41, 1-{7-[(3-fluorophenyl)sulfonyl]-3,4-dihydro-1′H,2H-spiro[1-benzofuro[2,3-c]pyridine-1,4′-piperidin]-1′-yl}ethanone], less than 500 nM.
Regarding `CC1(C)NCCc2c1oc1ccc(S(=O)(=O)c3cccc(F)c3)cc21` [Example 42, 6-[(3-fluorophenyl)sulfonyl]-1,1-dimethyl-1,2,3,4-tetrahydro[1]benzofuro[2,3-c]pyridine], the Ki fell in the range of 500 to 1000 nM.
Turning to `O=S(=O)(c1cccc(F)c1)c1ccc2c3c(oc2c1)C1(CCOCC1)NCC3` [Example 43, 7-[(3-fluorophenyl)sulfonyl]-2′,3,3′,4,5′,6′-hexahydro-2H-spiro[1-benzofuro[2,3-c]pyridine-1,4′-pyran]], the Ki was less than 500 nM.
Turning to `CC(C)Oc1cccc(S(=O)(=O)c2ccc3c4c(oc3c2)C2(CCOCC2)NCC4)c1` [Example 44, 7-{[3-(propan-2-yloxy)phenyl]sulfonyl}-2′,3,3′,4,5′,6′-hexahydro-2H-spiro[1-benzofuro[2,3-c]pyridine-1,4′-pyran]], the Ki was less than 500 nM.
Consider `CC12CCNCC1Oc1ccc(S(=O)(=O)c3ccccc3)cc12` (stereo not shown) [Example 62, 4a-Methyl-6-(phenylsulfonyl)-1,2,3,4,4a,9a-hexahydro[1]benzofuro[2,3-c]pyridine hydrochloride], for which the Ki is greater than 1000 nM.
Turning to `COc1cc(OC(C)C)cc(S(=O)(=O)c2ccc3c(c2)OC2CNCCC32)c1` (stereo not shown) [Example 77], the Ki was less than 500 nM.
As for `COc1cc(OC(C)C)cc(S(=O)(=O)c2ccc3c(c2)OC2CNCCC32)c1` (stereo not shown) [Example 78], the Ki was less than 500 nM.
On the same count and under the same terms, with `O=S(=O)(c1cc(F)cc(F)c1)c1ccc2c3c(oc2c1)CNCC3` [Example 107, 7-(3,5-Difluoro-benzenesulfonyl)-1,2,3,4-tetrahydro-benzo[4,5]furo[2,3-c]pyridine hydrochloride] the figure was less than 500 nM; with `O=S(=O)(c1cccc(Cl)c1)c1ccc2c(c1)OC1CNCCC21` (stereo not shown) [Example 112], less than 500 nM.
Consider `O=S(=O)(c1ccc2c(c1)OC1CNCCC21)c1ccccc1Cl` (stereo not shown) [Example 113], for which the Ki was less than 500 nM.
For the molecule `O=S(=O)(c1ccc2c(c1)OC1CNCCC21)c1cccc2ccccc12` (stereo not shown) [Example 114], the Ki was less than 500 nM.
Still for that read-out and setting: with `COc1ccc(S(=O)(=O)c2ccc3c(c2)OC2CNCCC32)cc1OC` (stereo not shown) [Example 115] the figure was greater than 1000 nM.
Take `O=S(=O)(c1ccc(Oc2ccccc2)cc1)c1ccc2c(c1)OC1CNCCC21` (stereo not shown) [Example 116]: the Ki is less than 500 nM.
In the case of `O=S(=O)(c1cccc(F)c1)c1ccc2c(c1)OC1CNCCC21` (stereo not shown) [Example 117], the Ki was less than 500 nM.
As to `COc1cccc(S(=O)(=O)c2ccc3c(c2)OC2CNCCC32)c1` (stereo not shown) [Example 118], the Ki was less than 500 nM.
As for `O=S(=O)(c1ccc2c(c1)OCCO2)c1ccc2c(c1)OC1CNCCC21` (stereo not shown) [Example 119], the Ki was less than 500 nM.
Same read-out and setting: the same measure for `O=S(=O)(c1ccc(Cl)c(Cl)c1)c1ccc2c(c1)OC1CNCCC21` (stereo not shown) [Example 120]: less than 500 nM; for `Cc1ccc(S(=O)(=O)c2ccc3c(c2)OC2CNCCC32)cc1` (stereo not shown) [Example 121]: less than 500 nM; for `O=S(=O)(c1ccc2c(c1)OC1CNCCC21)c1ccc2ccccc2c1` (stereo not shown) [Example 122]: less than 500 nM.
As to `O=S(=O)(c1ccc2c(c1)OC1CNCCC21)c1cccc(Cl)c1Cl` (stereo not shown) [Example 123], the Ki was less than 500 nM.

The test is the same for the next values; noted with them: membranes of CHO-K1 cells with recombinant human 5-HT6, 4 nM [3H]LSD; specific data; read-out: h5-HT6 (Ki).
For `CC1(C)NCCc2c1oc1cc(S(=O)(=O)c3cccc(F)c3)ccc21` [Example 1, 7-[(3-Fluorophenyl)sulfonyl]-1,1-dimethyl-1,2,3,4-tetrahydro[1]benzofuro[2,3-c]pyridine], the Ki was determined as 1.5 nM.

(Values after patent publication US8765779B2, “Tricyclic derivatives and their pharmaceutical use and compositions” (Cephalon, Inc., priority 2009, dated 2014).)
